Tests used:
[1] = molecular target: T1, NLRP3 (Homo sapiens, UniProt Q96P20); experiment: THP-1 cells pyroptosis assay; format: cell-based; conditions: LPS 1.0 μg/ml, nigericin 5 μM, resazurin readout
T1 construct: Seed THP-1 cells (25,000 cells/well) containing 1.0 μg/ml LPS; host or cells: THP-1 cells
Description: It is well established that the activation of NLRP3 leads to cell pyroptosis and this feature plays an important part in the manifestation of the clinical disease (Yan-gang Liu et al., Cell Death & Disease, 2017, 8(2), e2579; Alexander Wree et al., Hepatology, 2014, 59(3), 898-910; Alex Baldwin et al., Journal of Medicinal Chemistry, 2016, 59(5), 1691-1710; Ema Ozaki et al., Journal of Inflammation Research, 2015, 8, 15-27; Zhen Xie & Gang Zhao, Neuroimmunology Neuroinflammation, 2014, 1(2), 60-65; Mattia Cocco et al., Journal of Medicinal Chemistry, 2014, 57(24), 10366-10382; T. Satoh et al., Cell Death & Disease, 2013, 4, e644). Therefore, it is anticipated that inhibitors of NLRP3 will block pyroptosis, as well as the release of pro-inflammatory cytokines (e.g. IL-1β) from the cell.
THP-1 cells (ATCC #TIB-202) were grown in RPMI containing L-glutamine (Gibco #11835) supplemented with 1 mM sodium pyruvate (Sigma #S8636) and penicillin (100 units/ml)/streptomycin (0.1 mg/ml) (Sigma #P4333) in 10% Fetal Bovine Serum (FBS) (Sigma #F0804). The cells were routinely passaged and grown to confluency (˜10^6 cells/ml). On the day of the experiment, THP-1 cells were harvested and resuspended into RPMI medium (without FBS). The cells were then counted and viability (>90%) checked by Trypan blue (Sigma #T8154). Appropriate dilutions were made to give a concentration of 625,000 cells/ml. To this diluted cell solution was added LPS (Sigma #L4524) to give a 1 μg/ml Final Assay Concentration (FAC). 40 μl of the final preparation was aliquoted into each well of a 96-well plate. The plate thus prepared was used for compound screening.
The following method step-by-step assay was followed for compound screening. • 1. Seed THP-1 cells (25,000 cells/well) containing 1.0 μg/ml LPS in 40 μl of RPMI medium (without FBS) in 96-well, black walled, clear bottom cell culture plates coated with poly-D-lysine (VWR #734-0317) • 2. Add 5 μl compound (8 points half-log dilution, with 10 μM top dose) or vehicle (DMSO 0.1% FAC) to the appropriate wells • 3. Incubate for 3 hrs at 37° C. in 5% CO2 • 4. Add 5 μl nigericin (Sigma #N7143) (FAC 5 μM) to all wells • 5. Incubate for 1 hr at 37° C. and 5% CO2 • 6. At the end of the incubation period, spin plates at 300×g for 3 mins and remove supernatant • 7. Then add 50 μl of resazurin (Sigma #R7017) (FAC 100 μM resazurin in RPMI medium without FBS) and incubate plates for a further 1-1.5 h at 37° C. and 5% CO2 • 8. Plates were read in an Envision reader at Ex 560 nm and Em 590 nm • 9. IC50 data is fitted to a non-linear regression equation (log inhibitor vs response-variable slope 4-parameters) 96-Well Plate Map

[2] = mouse; cited from earlier work
[3] = Isothermal titration calorimetry (ITC), Ca^2+ binding; conditions: MCC950 sodium salt
[4] = Isothermal titration calorimetry (ITC), copper complexation of MCC950; format: binding
Experimental: Complex formation between the sodium form of MCC950 and copper chloride was tested and detected by using isothermal titration calorimetry (ITC). MCC950 (also known as CRID3) is a sulphonylurea having the formula: […]
An autoITC 200 (GE life sciences) was used to measure the change in heat induced by Cu^2+-MCC950 interactions and data analysed using the MicroCal Origin version 7.0 software package adapted for auto-ITC data analysis.
Copper chloride (5 or 2.5 mM of CuCl2) dissolved in water (miliQ water; Elga) was titrated into a cell containing 0.4 mM MCC950Na also dissolved in water. The titration consisted of 19×2 μL injections at 25° C. As a control EDTA was used, in free acid form or as a sodium di-salt, at a concentration of 0.4 mM. Experiments were replicated three times and results were averaged. Thermograms and binding isotherms were used to determine the enthalpy (ΔH), binding constants (K), stoichiometry (N), and entropy (TΔS) using a single-site binding model. The change in standard Gibbs free energy (ΔG) was calculated using the Gibbs-Helmholz thermodynamic equation: ΔG=−RTInK, where R is the ideal gas constant (1.985 cal mol^−1K^−1) and T is the temperature (298 K).

[5] = molecular target: T2, NLRP3 inflammasome (Homo sapiens, UniProt Q96P20); experiment: Inhibition of IL-1β release, cell based assay using HMDM (NLRP3 inflammasome activation assay)
T2 construct: endogenous in cells; host or cells: HMDM (human monocyte-derived macrophages from buffy coat blood)
Experimental: The following assays can be used to determine inhibitory activity of test compounds on the NLRP3 inflammasome using common stimuli such as adenosine triphosphate, nigericin, LeuLeu-OMe or monosodium urate crystals (MSU).
To generate HMDM (Human Monocyte Derived Macrophages), human monocytes are isolated from buffy coat blood using Ficoll-Plaque Plus (GE Healthcare) and density centrifugation. CD14^+ cell selection is performed using MACS magnetic beads (Miltenyl Biotec). Isolated CD14^+ monocytes are differentiated in culture for 7 days with 10 ng/ml human CSF-1 (Miltenyl Biotec) in Iscove's modified Dulbecco's medium (IMDM) containing L-glutamine supplemented with 10% FBS and 1% penicillin/streptomycin (Life Technologies) as described by Croker et al 2013 Immunol Cell Biol 91:625. Stably transfected ASC-cerulean macrophages as described by Hett et al. (Nat. Chem. Biol., 9, 398-405, 2013) are cultured in DMEM supplemented with 10% FCS and 1% P/S.
HMDM are seeded at 1×10^5/ml. […]
For ELISA and cell death assays cells are seeded in 96 well plates. Supernatants are removed and analysed using ELISA kits according to the manufacturer's instructions (DuoSet® R&D Systems, ReadySetGo!® eBioscience, BD OptEIA™, or Perkin Elmer AlphaLISA®). Cell death is assessed by measurement of LDH release relative to a 100% cell lysis control using the CytoTox96® non-radioactive cytotoxicity assay (Promega).

T1 sequence (Q96P20 whole entry): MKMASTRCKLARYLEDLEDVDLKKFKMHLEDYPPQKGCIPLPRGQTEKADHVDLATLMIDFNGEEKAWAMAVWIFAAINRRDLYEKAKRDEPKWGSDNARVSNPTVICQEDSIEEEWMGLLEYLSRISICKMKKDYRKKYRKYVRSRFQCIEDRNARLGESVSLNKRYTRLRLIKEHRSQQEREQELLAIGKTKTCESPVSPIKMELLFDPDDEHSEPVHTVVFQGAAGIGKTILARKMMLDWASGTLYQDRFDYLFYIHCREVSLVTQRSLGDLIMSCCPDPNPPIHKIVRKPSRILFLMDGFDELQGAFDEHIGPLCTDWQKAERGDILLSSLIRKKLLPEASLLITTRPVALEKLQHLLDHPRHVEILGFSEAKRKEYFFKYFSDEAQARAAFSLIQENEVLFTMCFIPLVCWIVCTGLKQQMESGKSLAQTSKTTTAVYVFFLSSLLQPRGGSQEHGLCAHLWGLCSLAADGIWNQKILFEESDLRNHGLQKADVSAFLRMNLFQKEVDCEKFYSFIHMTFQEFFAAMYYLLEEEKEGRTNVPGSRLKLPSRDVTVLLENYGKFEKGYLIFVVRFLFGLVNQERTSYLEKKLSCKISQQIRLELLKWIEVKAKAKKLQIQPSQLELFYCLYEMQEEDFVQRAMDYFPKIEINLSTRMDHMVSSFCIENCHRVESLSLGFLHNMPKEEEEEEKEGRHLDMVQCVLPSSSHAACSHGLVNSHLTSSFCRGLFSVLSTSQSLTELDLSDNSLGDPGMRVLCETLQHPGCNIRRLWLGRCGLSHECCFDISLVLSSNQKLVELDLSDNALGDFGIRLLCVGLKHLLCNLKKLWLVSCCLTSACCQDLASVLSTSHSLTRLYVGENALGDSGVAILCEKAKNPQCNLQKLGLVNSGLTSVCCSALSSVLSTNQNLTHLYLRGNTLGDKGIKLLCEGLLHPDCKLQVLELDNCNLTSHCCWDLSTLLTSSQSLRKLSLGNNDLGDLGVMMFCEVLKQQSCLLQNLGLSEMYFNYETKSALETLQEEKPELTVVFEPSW
T2 sequence (Q96P20 whole entry): as above

Row | SMILES | IC50 [1] [µM] | also measured
1 | O=C(Nc1c2c(cc3c1CCC3)CCC2)NS(=O)(=O)NCc1ccncc1 [Example 30] | < 50 | –
2 | CC(C)(O)c1coc(S(=O)(=O)NC(=O)Nc2c3c(cc4c2CCC4)CCC3)c1 [MCC950] | – | half-life [2]: 3.2 h; binding to Ca^2+ (ITC, FIG. 1) [3]: no binding; K (binding constant) ([4]; ITC, CuCl2 titrated into 0.4 mM MCC950Na in water, 25° C.): 5.69 ± 0.3 10^4 M^−1; binding to Cu^2+ (ITC, FIG. 1) ([4]; MCC950 sodium salt): significant binding
3 | O=C(Nc1c2c(cc3c1CCC3)CCC2)NS(=O)(=O)N(CCN1CCOCC1)Cc1ccco1 [Example 17] | < 50 | –
4 | CC(C)n1ccc(S(=O)(=O)NC(=O)Nn2c3ccccc3c3ccccc32)n1 [Example 4, N-((9H-carbazol-9-yl)carbamoyl)-1-isopropyl-1H-pyrazole-3-sulfonamide] | – | IC50 [5]: < 10 µM
5 | O=C(Nc1c2c(cc3c1CCC3)CCC2)NS(=O)(=O)NCc1c(F)cc(F)cc1F [Example 11] | < 10 | –
6 | O=C(Nc1c2c(cc3c1CCC3)CCC2)NS(=O)(=O)NCc1ccco1 [Example 14] | < 10 | –
7 | O=C(Nc1c2c(cc3c1CCC3)CCC2)NS(=O)(=O)Nc1cccc2c1CCC2 [Example 37] | < 10 | –
8 | Cc1ccc(NS(=O)(=O)NC(=O)Nc2c3c(cc4c2CCC4)CCC3)cc1C#N [Example 33] | < 10 | –
9 | CN1CCN(S(=O)(=O)NC(=O)Nc2c3c(cc4c2CCC4)CCC3)CC1 [Example 2, N-((1,2,3,5,6,7-hexahydro-s-indacen-4-yl)carbamoyl)-4-methylpiperazine-1-sulfonamide] | – | IC50 [5]: < 1 µM
10 | Cc1ccccc1OCCNS(=O)(=O)NC(=O)Nc1c2c(cc3c1CCC3)CCC2 [Example 26] | < 10 | –
11 | O=C(Nc1c2c(cc3c1CCC3)CCC2)NS(=O)(=O)NCCOc1ccccc1Cl [Example 5] | < 10 | –
12 | O=C(Nc1c2c(cc3c1CCC3)CCC2)NS(=O)(=O)N1CCc2ccccc21 [Example 28] | < 10 | –
13 | CN(c1ccccc1)S(=O)(=O)NC(=O)Nc1c2c(cc3c1CCC3)CCC2 [Example 31] | < 10 | –
14 | O=C(Nc1c2c(cc3c1CCC3)CCC2)NS(=O)(=O)NCc1ccc(Cl)cc1F [Example 6] | < 10 | –
15 | Cc1nccn1-c1ccc(NS(=O)(=O)NC(=O)Nc2c3c(cc4c2CCC4)CCC3)cc1 [Example 27] | < 10 | –

Continued, in another order:

Row | IC50 [1] [µM] | SMILES | also measured
16 | < 10 | O=C(Nc1c2c(cc3c1CCC3)CCC2)NS(=O)(=O)NCCc1nc(-c2cccnc2)no1 [Example 21] | –
17 | < 10 | O=C(Nc1c2c(cc3c1CCC3)CCC2)NS(=O)(=O)NCCN1CCc2ccccc21 [Example 40] | –
18 | < 10 | O=C(Nc1c2c(cc3c1CCC3)CCC2)NS(=O)(=O)NCc1cccs1 [Example 23] | –
19 | < 1 | Cn1ncc2ccc(NS(=O)(=O)NC(=O)Nc3c4c(cc5c3CCC5)CCC4)cc21 [Example 42, 1-(1,2,3,5,6,7-Hexahydro-s-indacen-4-yl)-3-[(1-methyl-1H-indazol-6-yl)sulfamoyl]urea] | –
20 | < 10 | CN(Cc1ccncc1)S(=O)(=O)NC(=O)Nc1c2c(cc3c1CCC3)CCC2 [Example 29] | –
21 | < 10 | CCn1c(=O)n(CC)c2cc(NS(=O)(=O)NC(=O)Nc3c4c(cc5c3CCC5)CCC4)c(C)cc21 [Example 34] | –
22 | < 10 | Cc1ccc(OCCNS(=O)(=O)NC(=O)Nc2c3c(cc4c2CCC4)CCC3)cc1 [Example 24] | –
23 | < 10 | O=C(Nc1c2c(cc3c1CCC3)CCC2)NS(=O)(=O)NCCc1nccs1 [Example 15] | –
24 | < 10 | CN(Cc1ccc(F)cc1)S(=O)(=O)NC(=O)Nc1c2c(cc3c1CCC3)CCC2 [Example 32] | –
25 | < 10 | CN(Cc1csc(-c2ccccc2)n1)S(=O)(=O)NC(=O)Nc1c2c(cc3c1CCC3)CCC2 [Example 20] | –
26 | < 10 | CS(=O)(=O)c1cccc(CNS(=O)(=O)NC(=O)Nc2c3c(cc4c2CCC4)CCC3)c1 [Example 7] | –
27 | < 1 | O=C(Nc1c2c(cc3c1CCC3)CCC2)NS(=O)(=O)Nc1ccc2[nH]ccc2c1 [Example 43, 3-(1,2,3,5,6,7-Hexahydro-s-indacen-4-yl)-1-[(1H-indol-5-yl)sulfamoyl]urea] | –
28 | < 10 | CCN(C)C1(CNS(=O)(=O)NC(=O)Nc2c3c(cc4c2CCC4)CCC3)CCCCC1 [Example 12] | –
29 | < 10 | CN(C)CCN(Cc1ccsc1)S(=O)(=O)NC(=O)Nc1c2c(cc3c1CCC3)CCC2 [Example 18] | –
30 | < 1 | O=C(Nc1c2c(cc3c1CCC3)CCC2)NS(=O)(=O)N(Cc1ccccc1)Cc1nccs1 [Example 19] | –
31 | < 10 | O=C(Nc1c2c(cc3c1CCC3)CCC2)NS(=O)(=O)N1CCN(CCc2cccs2)CC1 [Example 13] | –
32 | < 10 | Cc1ccnc(C)c1NS(=O)(=O)NC(=O)Nc1c2c(cc3c1CCC3)CCC2 [Example 39] | –
33 | < 10 | CC(=O)c1cc2c(cc1NS(=O)(=O)NC(=O)Nc1c3c(cc4c1CCC4)CCC3)OCO2 [Example 36] | –
34 | < 10 | O=C(Nc1c2c(cc3c1CCC3)CCC2)NS(=O)(=O)NCCCc1ccccc1 [Example 25] | –
35 | < 1 | COc1cc(C)c(NS(=O)(=O)NC(=O)Nc2c3c(cc4c2CCC4)CCC3)cn1 [Example 35] | –

Source: US11858922B2, “Sulfonylureas and related compounds and use of same” (The University of Queensland, priority 2016, dated 2024)
